According to ChEMBL document CHEMBL4334492, “Nectriatide, a Potentiator of Amphotericin B Activity from Nectriaceae sp. BF-0114” (J Nat Prod, 2019):
≈ marks a conversion by molar mass, not a printed value. Non-standard residues stand in square brackets, D forms with d. Residues, ends and D or L forms follow the SMILES beside them. *: point of attachment. NMeY = CN[C@@H](Cc1ccc(O)cc1)C(=O)O; 2Abz = Nc1ccccc1C(=O)O; tBu = CC(C)(C)*

Assays:
HEK293 = assay: Cytotoxicity against human HEK293 cells assessed as reduction in cell viability after 24 hrs by MTT assay; format: cell-based; conditions: HEK293, 24 h
Candida albicans [1] = assay: Potentiation of amphotericin-induced antifungal activity against Candida albicans ATCC 90029 assessed as fold reduction in amphotericin MIC at 16 ug/ml after 24 hrs by broth microdilution method relative to amphotericin MIC alone; format: functional
Candida albicans [2] = assay: Potentiation of amphotericin-induced antifungal activity against Candida albicans ATCC 90029 assessed as amphotericin MIC at 8 ug/ml after 24 hrs by broth microdilution method (reference value: 0.5 ug/ml); format: functional; conditions: ATCC 90029, 24 h
Candida albicans [3] = assay: Potentiation of amphotericin-induced antifungal activity against Candida albicans ATCC 90029 assessed as amphotericin MIC at 16 ug/ml after 24 hrs by broth microdilution method (reference value: 0.5 ug/ml); format: functional; conditions: ATCC 90029, 24 h
Candida albicans [4] = assay: Potentiation of amphotericin-induced antifungal activity against Candida albicans ATCC 90029 assessed as fold reduction in amphotericin MIC at 32 ug/ml after 24 hrs by broth microdilution method relative to amphotericin MIC alone; format: functional
Candida albicans [5] = assay: Potentiation of amphotericin-induced antifungal activity against Candida albicans ATCC 90029 assessed as amphotericin MIC at 32 ug/ml after 24 hrs by broth microdilution method (reference value: 0.5 ug/ml); format: functional; conditions: ATCC 90029, 24 h
Candida albicans [6] = assay: Potentiation of amphotericin-induced antifungal activity against Candida albicans ATCC 90029 assessed as fold reduction in amphotericin MIC at 8 ug/ml after 24 hrs by broth microdilution method relative to amphotericin MIC alone; format: functional

Row | MIC (Candida albicans [2]) | MIC (Candida albicans [3]) | MIC (Candida albicans [5]) | Structure (SMILES) | IC50 (HEK293) | Ratio (Candida albicans [1]) | Ratio (Candida albicans [4]) | Ratio (Candida albicans [6])
1 |  |  |  | C[C@@H]1[C@H](O)[C@@H](C)/C=C/C=C/C=C/C=C/C=C/C=C/C=C/[C@H](O[C@@H]2O[C@H](C)[C@@H](O)[C@H](N)[C@@H]2O)C[C@@H]2O[C@](O)(C[C@@H](O)C[C@@H](O)[C@H](O)CC[C@@H](O)C[C@@H](O)CC(=O)O[C@H]1C)C[C@H](O)[C@H]2C(=O)O [AMPHOTERICIN B] | 15 µg/mL (≈ 16.2 µM) |  |  | 
2 | 0.25 µg/mL | 0.13 µg/mL | 0.063 µg/mL | CC(C)[C@H](N)C(=O)N(C)[C@@H](Cc1ccc(OC(C)(C)C)cc1)C(=O)Nc1ccccc1C(=O)N[C@@H](C)C(=O)O (H-V[NMeY](tBu)[2Abz]A-OH) |  | 4 | 8 | 2
3 | 0.13 µg/mL | 0.063 µg/mL | 0.031 µg/mL | CC(C)[C@@H]1NC(=O)[C@H](C)NC(=O)c2ccccc2NC(=O)[C@H](Cc2ccc(OC(C)(C)C)cc2)N(C)C1=O (cyclo([2Abz]AV[NMeY](tBu))) |  | 8 | 16 | 4
4 |  |  | 0.13 µg/mL | CN[C@@H](Cc1ccc(OC(C)(C)C)cc1)C(=O)Nc1ccccc1C(=O)O |  |  | 4 | 
5 | 0.13 µg/mL | 0.063 µg/mL | 0.031 µg/mL | CC(C)[C@H]1NC(=O)[C@H](C)NC(=O)c2ccccc2NC(=O)[C@H](Cc2ccc(O)cc2)N(C)C1=O |  | 8 | 16 | 4
6 |  |  | 0.13 µg/mL | C[C@H](NC(=O)c1ccccc1N)C(=O)O |  |  | 4 | 
